Where no end group is shown, it is not given here.
How the values were obtained:
Type in all cases: in vivo, Vietnamese minipigs
big-endothelin = assay: Plasma big-endothelin in porcine cardiac tamponade model; conditions: after cardiac tamponade; AcPepA 4 mg/kg iv; FIG. 4B
Experimental: (§1) The animals were randomly allocated to either of three experimental groups. Group 1 (n=6) served as the sham^-operated group to which the same time-frame and sampling conditions as in the groups of 2 (n=7) and 3 (n=6) were applied, but without causing cardiac tamponade. Left lateral thoracotomy was performed in all groups. In the groups which developed cardiac tamponade, namely, in the group not treated with AcPepA (herein also referred to as “non-treated group”) and the group treated with AcPepA (herein also referred to as “treated group”), a cannula was fixed into the pericardial cavity. […] After elapse of this period, the fluid was removed from the pericardial cavity and the animals were monitored for 180 minutes post-tamponade. […]
(§2) Plasma concentrations of protein HMGB-1 were determined with a commercially available protein HMGB-1 ELISA kit (Shino-Test Corporation, Kanagawa, Japan). Plasma levels of big-endothelin, a 38 amino acid precursor protein of endothelin-1 (ET-1), were determined with a commercially available kit (Biochemica Hungaria Kft., Budapest, Hungary). Plasma histamine concentrations were determined by commercially available enzyme-linked immunoassay (Quantikine ultrasensitive EIA kit for histamine; Biomedica Hungaria Kft, Budapest, Hungary).

[1] = test system: mucosal microcirculation of the small intestine; assay: Intravital videomicroscopy of the intestinal microcirculation in porcine cardiac tamponade model; conditions: end of the post-tamponade phase; AcPepA 4 mg/kg iv; FIG. 3B
Experimental: as §1
An intravital orthogonal polarization spectral imaging technique (Cytoscan A/R, Cytometrics, Philadelphia, Pa., USA) was used for noninvasive visualization of the mucosal microcirculation of the small intestine. […] A 10× objective lens was placed onto the serosal surface of the […], and microscopic images were recorded with an S-VHS video recorder 1 (Panasonic AG-TL 700, Matsushita Electric Ind. Co. Ltd, Osaka, Japan). Quantitative assessment of the microcirculatory parameters was performed off-line by frame-to-frame analysis of the videotaped images. […]

histamine = assay: Plasma histamine in porcine cardiac tamponade model; conditions: 15 minutes of the post-tamponade phase; AcPepA 4 mg/kg iv; FIG. 4A
Experimental: as §1, §2

[2] = test system: whole blood superoxide production; assay: Whole blood superoxide production in porcine cardiac tamponade model; conditions: early stage of the post-tamponade phase; AcPepA 4 mg/kg iv; FIG. 5B
Experimental: The animals were randomly allocated to either of three experimental groups. Group 1 (n=6) served as the sham^-operated group to which the same time-frame and sampling conditions as in the groups of 2 (n=7) and 3 (n=6) were applied, but without causing cardiac tamponade. Left lateral thoracotomy was performed in all groups. In the groups which developed cardiac tamponade, namely, in the group not treated with AcPepA (herein also referred to as “non-treated group”) and the group treated with AcPepA (herein also referred to as “treated group”), a cannula was fixed into the pericardial cavity. A pericardial tamponade was induced for 60 minutes by the intrapericardial administration of colloid solution, while the mean artery pressure was kept in the interval of 40 to 45 mmHg. After elapse of this period, the fluid was removed from the pericardial cavity and the animals were monitored for 180 minutes post-tamponade. […]
During the measurements, 10 μL whole blood was added to 1 mL Hank's solution (PAA Cell Culture Company) and the mixture was kept at 37° C. until assay. The chemiluminometric response was measured with a Lumat LB9507 luminometer (Berthold, Germany) during a 30 minute period after addition of 100 μL of lucigenin.

protein HMGB-1 = assay: Plasma HMGB-1 in porcine cardiac tamponade model; conditions: after cardiac tamponade; AcPepA 4 mg/kg iv; FIG. 4C
Experimental: as §1, §2

[3] = test system: acute porcine model of experimental cardiac tamponade; assay: Macro-hemodynamic measurements in acute porcine model of experimental cardiac tamponade; conditions: for central venous pressure: FIG. 2A; for global end-diastolic volume index: FIG. 2B; for superior mesenteric artery blood flow: FIG. 3A; for heart rate: FIG. 2C
Experimental: Inbred Vietnamese minipigs of both sexes (n=19, weighing 24±3 kg) were fasted for twelve (12) hours preoperatively, but received water ad libitum. Anesthesia was induced with a mixture of ketamine (20 mg/kg) and xylazine (2 mg/kg) im and maintained with a continuous infusion of propofol (50 μL/min/kg iv; 6 mg/kg/hr). After endotracheal intubation, the animals were mechanically ventilated with the tidal volume set at 9±2 mL/kg, and the respiratory rate was adjusted to maintain the end-tidal pressure of CO2 and PaCO2 in the range of 35 to 45 mmHg. Positive end-expiratory pressure was not applied during the period of cardiac tamponade.
The animals were placed in a supine position on an electric heating pad for maintenance of body temperature between 36 and 37° C., and received an infusion of Ringer's lactate at a rate of 10 mL/kg/h during the experiment. The right femoral artery and jugular vein were cannulated for the measurement of mean arterial pressure (“MAP”) and cardiac output (“CO”) by thermodilution (PICCO catheters, PULSION Medical Systems, Germany), and for fluid or drug administration, respectively. […] An ultrasonic flow probe (Transonic Systems Inc., Ithaca, N.Y., U.S.A.) was placed around the exposed SMA to measure the mesenteric blood flow. In all protocols, the animals were monitored continuously, arterial blood gases were regularly checked (Cobas b121, Roche, Austria), and a period of 30 minutes was allowed for recovery from surgery.
The animals were randomly allocated to either of three experimental groups. Group 1 (n=6) served as the sham^-operated group to which the same time-frame and sampling conditions as in the groups of 2 (n=7) and 3 (n=6) were applied, but without causing cardiac tamponade. Left lateral thoracotomy was performed in all groups. In the groups which developed cardiac tamponade, namely, in the group not treated with AcPepA (herein also referred to as “non-treated group”) and the group treated with AcPepA (herein also referred to as “treated group”), a cannula was fixed into the pericardial cavity. A pericardial tamponade was induced for 60 minutes by the intrapericardial administration of colloid solution, while the mean artery pressure was kept in the interval of 40 to 45 mmHg. After elapse of this period, the fluid was removed from the pericardial cavity and the animals were monitored for 180 minutes post-tamponade. Group 3 (the treated group) was treated with AcPepA (a single administration of 4 mg/kg in 5 mL saline iv into the jugular vein in a 5-minute infusion) after 45 minutes of cardiac tamponade. The beginning of tamponade is denoting 0 minute. Vehicle (saline) administration was applied in the groups of 1 and 2 by the same protocol.
Central venous pressure (“CVP”) and blood flow signals were continuously monitored and automatically registered with a computerized data-acquisition system (SPELL Haemosys; Experimetria Ltd., Budapest, Hungary). Mean arterial pressure, cardiac output and heart rate were measured with the PICCO Plus monitoring system (PULSION Medical Systems, Germany) and the global end-diastolic volume index (“GEDI”) was calculated with the PICCO system. Incidentally, central venous pressure was measured in each animal to exclude the influence of these factors, in parallel with the standard ventilation and fluid replacement protocols

myeloperoxidase = assay: Small intestinal myeloperoxidase activity in porcine cardiac tamponade model; conditions: end of the experiment; AcPepA 4 mg/kg iv; FIG. 5A
Experimental: as §1
The activity of myeloperoxidase, a marker of activation of polymorphonuclear leukocyte, was measured by using ileal biopsy samples according to the method of Kuebler et al. (for review see Kuebler W M, Abels C, Schuerer L, et al: Measurement of neutrophil content in brain and lung tissue by a modified myeloperoxidase assay. Int J Microcirc Clin Exp 1996; 16:89-97). […] Levels of myeloperoxidase were calculated via a calibration curve prepared with an myeloperoxidase standard (Sigma-Aldrich GmbH, Germany). […] Myeloperoxidase activities of such samples were measured as described above, and such data were referred to the protein content.

[4] = after relief of cardiac tamponade, AcPepA 4 mg/kg iv
[5] = during the period of cardiac tamponade, treated group vs sham-operated group

“AcPepA: 17 amino acid peptide (Ala Ser Gly Ala Pro Ala Pro Gly Pro Ala Gly Pro Leu Arg Pro Met Phe), N-terminal alanine acetylated; C5A antagonist (Ac-ASGAPAPGPAGPLRPMF)” was tested, and the plasma big-endothelin levels (big-endothelin) was “low values as compared with in the non-treated group and also showed the same values as in the sham-operated group”, the “average red blood cell verocity” value [1] was “increased significantly from the baseline level and also as compared with in the non-treated group” and the “histamine levels in blood plasma” value (histamine) was “decreased significantly in the treated group as compared with in the non-treated group and showed the same values as in the sham-operated group”. The “whole blood superoxide production” value [2] was “low as compared with in the non-treated group and also showed the same values as in the sham-operated group”, the “plasma levels of protein HMGB-1” value (protein HMGB-1) was “significant low values as compared with in the non-treated group and also showed the same values as in the sham-operated group” and the central venous pressure [3, 4] was “significant high values as compared with in the non-treated group and also showed the same values as in the sham-operated group”. The “global end-diastolic volume index” value [3, 4] was “significant high values as compared with in the non-treated group and also showed the same values as in the sham-operated group”, the mean arterial pressure ([3]; after relief of tamponade, AcPepA 4 mg/kg iv single dose after 45 minutes of tamponade, FIG. 1A) was “significantly high values as compared with in the non-treated group and also showed the same values as in the sham-operated group” and the cardiac output ([3]; after relief of tamponade, AcPepA 4 mg/kg iv, FIG. 1B) was “not affected”. The “superior mesenteric artery blood flow” value ([3]; after relief of tamponade, AcPepA 4 mg/kg iv) was “increased significantly after relief of tamponade as compared with in the sham-operated group”, the “decline in cardiac output” value ([3]; during 60 minutes of cardiac tamponade, treated group (AcPepA 4 mg/kg iv after 45 minutes of tamponade), vs sham-operated group, FIG. 1B) was 65% and the heart rate ([3]; during cardiac tamponade, treated group vs sham-operated group) was “significant increase in heart rate”. For the same substance, the central venous pressure [3, 5] was “significant increase of central venous pressure”, the “global end-diastolic volume index” value [3, 5] was “significant decrease of the global end-diastolic volume index” and the “superior mesenteric artery blood flow” value [3, 5] was “significant decrease in the superior mesenteric artery blood flow”. For the same substance, the heart rate ([3]; post-tamponade period, AcPepA 4 mg/kg iv) was “significant decrease in the post-tamponade period as compared with in the non-treated group” and the “myeloperoxidase activity in small intestine tissue samples (polymorphonuclear leukocyte accumulation)” value (myeloperoxidase) was “significant low values in the treated group as compared with in the non-treated group and also showed the same values as in the sham-operated group”.

— US20160068571A1, “THERAPEUTIC AGENT FOR CARDIAC TAMPONADE” (Research Institute for Protein Science Co., priority 2013, published 2016)
